# Measurements reported in patent publication US20250319080A1, “BIO[…] FORMULATIONS AND METHODS OF USE AND MANUFACTURE THEREOF” (PURDUE RESEARCH FOUNDATION, priority 2022, published 2025).
# Assay: Solubility of buprenorphine FB in release media
# Format: physicochemical
# Details: 48 hours
# Protocol: The solubility of buprenorphine FB was determined in PBS with 0.05% Tween 20 (PBST) and 0.5% w/v sodium dodecyl sulfate (SDS) in water. The solubility was determined by placing excess buprenorphine FB into the media mentioned above at 37° C. and shaking at 40 RPM for 48 hours. After 48 hours, a sample was taken and centrifuged at 15,000 RPM for 5 minutes. The supernatant was then collected and diluted with the same medium, and the concentration was determined using high-performance liquid chromatography.
compound,measurement,setting,value
"CO[C@@]12CC[C@@]3(C[C@@H]1[C@](C)(O)C(C)(C)C)[C@H]1Cc4ccc(O)c5c4[C@@]3(CCN1CC1CC1)[C@H]2O5 [Buprenorphine FB, Buprenorphine free base]",Solubility in 0.5% SDS,"0.5% w/v sodium dodecyl sulfate in water, 37° C.",336 µg/mL
same,Solubility in PBST,"PBS with 0.05% Tween 20, 37° C.",8.8 µg/mL
